Reference: paper PMC11336141
Entries after “also recorded” stand apart in the source; their conditions may differ. Bridge positions count the residues as written; N and C are the ends. Square brackets hold non-standard residues; d marks the D form. Peptide text beside a SMILES is read from it.

Experiments:
Dr-sstr2b = test: PRESTO-Tango β-arrestin recruitment assay, Dr-sstr2b; type: cell-based, zebrafish (Danio rerio); conditions: for pEC50: Dr-sstr2b, Fig. S15D
From the text: (§1) 3xHA-tagged human SSTR2 construct was obtained from cDNA.org (cDNA resource center, Bloomsburg PA, US). […] Kirill Martemyanov (University of Florida, US). Tango constructs for human SSTR1-5 were kind gifts from Prof. Bryan Roth (University of North Carolina, Chapel Hill, US) (Addgene kit # 1000000068). Tango constructs for fish Dr-sstr2a (sequence accession number: XP_005170178.1) and Dr-sstr2b (sequence accession number: XP_017210358.1) were custom-synthesized by Twist Biosciences using the Tango construct template as described in Kroeze et al., 2015[28]. 3xHA-tagged Dr-sstr2a and 3xHA tagged Dr-sstr2b constructs were inserted into pcDNA3.1 backbone. All DNA constructs were sequenced and confirmed prior to use.
(§2) The assay was done as described in ref. [12].

human SSTR2 (Gi3) = biological target: T1, human SSTR2 (Gi3) (Homo sapiens, UniProt P30874); test: G protein activation (BRET dissociation) assay, Gi3 at hSSTR2; type: cell-based;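 on Emax ± S.E.M.: percent of the maximal response to the reference somatostatin agonist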
T1 construct: host or cells: HEK293T cells
Experimental: (§3) HEK293T cells were seeded onto 6-well plates at a density of 750,000 cells/well. […] 16 to 24 hours post-transfection, HEK293T cells were seeded onto white 96 well plate (PerkinElmer) coated with poly-L-lysine (PLL) at a density of 40,000 cells/well and were allowed to grow overnight. On the day of assay, cells were washed once with phosphate-based saline (PBS) and 80 µL of assay buffer which composed of PBS with 0.5 mM MgCl2 and 0.1% glucose, pH 7.4, were added onto each well. 10 µL of Nluc luciferase substrate furimazine (Promega) were added onto each well and incubated for 3 minutes.
(§4) The net BRET ratio was determined by subtracting the BRET ratio of drugs with the BRET ratio of vehicle control. Net BRET ratio over time was then plotted using GraphPad Prism (v.9.4.1), and the area-under-curve of net BRET ratio over time course for each ligand concentration tested were then determined and plotted against log(concentration) of drugs tested. […] Concentration response curves were fitted with a 4-parameter logistic Eq. (1) using GraphPad Prism (v.9.4.1):1 Y=Emin+(Emax−Emin)/1+10^logEC50−X×Hillslope

human SSTR2 (GoA) = human SSTR2 (GoA) (Homo sapiens, UniProt P30874); test: G protein activation (BRET dissociation) assay, GoA at hSSTR2;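 on Emax: percent of the maximal response to the reference somatostatin agonist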
Experimental: as §3, §4

human SSTR2 [1] = biological target: T2, human SSTR2 (Homo sapiens, UniProt P30874); test: PRESTO-Tango β-arrestin recruitment assay, hSSTR2
Experimental: HTLA cells were given by Prof. Bryan Roth (University of North Carolina, Chapel Hill, US) and were maintained in Dulbecco’s modified Eagle’s medium (DMEM) supplemented with 10% Fetal Bovine Serum (FBS) (Biowest) and 100 U/mL penicillin and 100 µg/mL streptomycin at 37 °C in a humidified incubator supplemented with 5% CO2. Constant selective pressure for tTA-dependent luciferase reporter and a β-arrestin 2 tobacco etch virus protease fusion gene were maintained with the addition of 100 µg/mL hygromycin B and 2 µg/ml puromycin (Tango growth medium).
Briefly, HTLA cells (1 million cells/well) were seeded in 6-well plates in Tango growth medium, and incubated overnight. On day 2, medium was changed to Tango growth medium without hygromycin B and puromycin. Cells were then transfected using Polyfect (Qiagen) according to manufacturer’s protocol. On day 3, 15,000 cells in 40 µL DMEM supplemented with 1% dialyzed FBS (Tango assay medium) per well were seeded in poly-D-lysine-coated white clear-bottom 384 well plates (Corning) and incubated overnight. On day 4, the Tango assay medium was changed and 10 µL of each of the peptide was added at 5x final concentration. The peptides were resuspended in HBSS with 20 mM HEPES, 1 mM of CaCl2, 1 mM of MgCl2, pH adjusted to 7.4 with 1 M NaOH (Tango assay buffer), which was supplemented with 0.1% BSA (Tango ligand buffer). After overnight incubation, on day 5, the medium and the compounds were removed from the cells and 20 µL of 1:20 dilution of BrightGlo (Promega) in Tango assay buffer supplemented with 0.01% pluronic F68 was added to the cells. Plates were incubated for 20 minutes in the dark at room temperature. Luminescence was measured on a Molecular Devices SpectraMax iD5 (Molecular Devices) with each well integrated for 1 second.

human SSTR2 (Gi2) = biological target: T3, human SSTR2 (Gi2) (Homo sapiens, UniProt P30874); test: G protein activation (BRET dissociation) assay, Gi2 at hSSTR2; type: cell-based;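 on Emax ± S.E.M.: percent of the maximal response to the reference somatostatin agonist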
T3 construct: host or cells: HEK293T cells
Experimental: as §3, §4

human SSTR2 [2] = biological target: T2, human SSTR2; test: Quantification of ligand bias (operational model), G proteins at hSSTR2; type: cell-based; design: Bryan Roth (Addgene) Addgene kit # 1000000068; host or cells: HTLA cells; conditions: for ∆log(tau/Ka): LogR(ligand) - LogR(SST-14); for LogR ± S.E.M.: log(τ/KA); for RE: relative efficacy; for ∆LogR ± S.E.M.: relative to SS-14; for G protein bias in words: ∆Log(τ/KA), SS-14 as reference
From the text: Ligand bias were quantified using the method described in[35]. […] The operational model (2)[35] was used to determine the transduction ratios (τ/KA).2 E=Emin+(Emax−Emin)/1+(1+A/10^logKA)/10^logRA^n where E is the effect of the ligand, [A] is the concentration of test ligands, Emax is the maximal response of the system, Emin is the minimum response of the system, logKA is the logarithm of the equilibrium dissociation constant, n is the slope of the transducer function, log R is the logarithm of the transduction ratio (τ/KA).
Each experiment was analyzed using the operational model which all individual experiments were fitted with a global shared slope. The LogR (equivalent to log [τ] /KA) values were estimated by GraphPad Prism (v.9.4.1) and were used to calculate the relative efficacy (RE) using Eqs.

Dr-sstr2a (GoA) = test: G protein dissociation assay, GoA at Dr-sstr2a; type: cell-based, zebrafish (Danio rerio); conditions: HEK293T cells
From the text: as §1
Error bars represent means ± S.E.M. of n = 3 in technical duplicates.

Dr-sstr2a = test: PRESTO-Tango β-arrestin recruitment assay, Dr-sstr2a; type: cell-based, zebrafish (Danio rerio); conditions: HTLA cells, listed as Consomatin pG1
From the text: as §1, §2

T3 sequence (P30874 whole entry): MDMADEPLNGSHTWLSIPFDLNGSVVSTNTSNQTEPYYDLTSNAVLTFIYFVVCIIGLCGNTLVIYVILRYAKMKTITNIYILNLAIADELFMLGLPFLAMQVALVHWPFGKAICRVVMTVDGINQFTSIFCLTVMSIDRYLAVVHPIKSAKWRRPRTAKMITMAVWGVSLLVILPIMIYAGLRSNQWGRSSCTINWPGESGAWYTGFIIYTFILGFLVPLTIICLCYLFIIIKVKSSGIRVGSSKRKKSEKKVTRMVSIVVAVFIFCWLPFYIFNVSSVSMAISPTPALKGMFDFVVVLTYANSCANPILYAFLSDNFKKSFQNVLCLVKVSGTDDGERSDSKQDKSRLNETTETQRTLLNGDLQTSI
human SSTR2 (GoA), sequence (P30874 whole entry): as above
T2 sequence (P30874 whole entry): as above
T1 sequence (P30874 whole entry): as above

CC(C)C[C@H](N)C(=O)N[C@@H](Cc1ccccc1)C(=O)N[C@H]1CSSC[C@@H](C(=O)N[C@@H](Cc2c[nH]c3ccccc23)C(=O)O)NC(=O)[C@H](CO)NC(=O)[C@H](CCCCN)NC(=O)[C@@H](Cc2c[nH]c3ccccc23)NC(=O)[C@H](Cc2ccccc2)NC1=O [pG1] (H-LFCF[dW]KSCW-OH; disulfide 3-8)
pEC50 (Dr-sstr2b; replicate 1): 7.529 | pEC50 (Dr-sstr2b; replicate 2): 7.491 | pEC50 (Dr-sstr2b; replicate 3): 7.611 | pEC50 (Dr-sstr2b; replicate 4): 7.82 | activation of Dr-sstr2b in words (Dr-sstr2b; PRESTO-Tango, HTLA cells): activates the zebrafish Dr-sstr2b (n = 3) but not Dr-sstr2a | Hill Slope (Dr-sstr2b; Table S4): 0.90 ± 0.13 | Span ± S.E.M. (Dr-sstr2b; Table S4): 82.46 ± 4.04 | EC50 (Dr-sstr2b; Table S4, HTLA cells): 25.3 nM | Emax ± S.E.M. (Dr-sstr2b; Table S4, relative to SS-14): 83.12 ± 3.13 | Emax (human SSTR2 (Gi3)): 75.2 ± 7.38% | Hill Slope (human SSTR2 (Gi3); Table S2, Gαi3): 0.70 ± 0.18 | Span ± S.E.M. (human SSTR2 (Gi3); Table S2, Gαi3): 75.57 ± 8.97 | EC50 (human SSTR2 (GoA)): 5.13 nM | Hill Slope (human SSTR2 (GoA); Table S2, GαoA): 1.04 ± 0.25 | Span ± S.E.M. (human SSTR2 (GoA); Table S2, GαoA): 97.45 ± 6.80 | GoA activation/dissociation in words (human SSTR2 (GoA); hSSTR2, HEK293T cells): most potent at dissociating GoA protein among all Gi/o proteins tested | Emax (human SSTR2 (GoA); read-out: Emax ± S.E.M.): 97.9 ± 4.11% | EC50 (human SSTR2 [1]): 3.55 nM | activation of hSSTR2 in words (human SSTR2 [1]; PRESTO-Tango, HTLA cells): potent and selective SSTR2 full agonist | Hill Slope (human SSTR2 [1]; Table S1): 0.50 ± 0.06 | Span ± S.E.M. (human SSTR2 [1]; Table S1): 106.03 ± 6.98 | Emax (human SSTR2 [1]; read-out: Emax ± S.E.M., Table S1, % of maximal response relative to SS-14): 105 ± 3.01% | Emax (human SSTR2 (Gi2)): 91 ± 4.6% | Hill Slope (human SSTR2 (Gi2); Table S2, Gαi2): 1.11 ± 0.22 | Span ± S.E.M. (human SSTR2 (Gi2); Table S2, Gαi2): 83.42 ± 5.67 | EC50 (human SSTR2 (Gi2); Table S2, Gαi2, HEK293T, means ± S.E.M.): 1.35 nM | ∆log(tau/Ka) (human SSTR2 [2]; Gi1 (Gαi1)): -1.977 | LogR, Mean (human SSTR2 [2]; Gi1, N: SS-14 4, Octreotide 2, pG1 4): 7.421 | LogR (human SSTR2 [2]; Gi1, replicate 1 (row r6)): 7.197 | LogR (human SSTR2 [2]; Gi1, replicate 2 (row r7)): 7.651 | LogR (human SSTR2 [2]; Gi1, replicate 3 (row r8)): 7.8528 | LogR (human SSTR2 [2]; Gi1, replicate 4 (row r9)): 6.983 | ∆log(tau/Ka) (human SSTR2 [2]; Gi2 (Gαi2)): -1.482 | LogR, Mean (human SSTR2 [2]; Gi2, N: SS-14 5, Octreotide 3, pG1 5): 7.871 | LogR (human SSTR2 [2]; Gi2, replicate 1 (row r6)): 7.692 | LogR (human SSTR2 [2]; Gi2, replicate 2 (row r7)): 7.679 | LogR (human SSTR2 [2]; Gi2, replicate 3 (row r8)): 7.686 | LogR (human SSTR2 [2]; Gi2, replicate 4 (row r9)): 8.256 | LogR (human SSTR2 [2]; Gi2, replicate 5 (row r10)): 8.0434 | ∆log(tau/Ka) (human SSTR2 [2]; Gi3 (Gαi3)): -1.406 | LogR, Mean (human SSTR2 [2]; Gi3, N: SS-14 3, Octreotide 2, pG1 3): 8.305 | LogR (human SSTR2 [2]; Gi3, replicate 1 (row r6)): 7.832 | LogR (human SSTR2 [2]; Gi3, replicate 2 (row r7)): 8.615 | LogR (human SSTR2 [2]; Gi3, replicate 3 (row r8)): 8.468 | ∆log(tau/Ka) (human SSTR2 [2]; GoA (GαoA)): -1.083 | LogR, Mean (human SSTR2 [2]; GoA, N: SS-14 4, Octreotide 2, pG1 2): 8.753 | LogR (human SSTR2 [2]; GoA, replicate 1 (row r6)): 8.653 | LogR (human SSTR2 [2]; GoA, replicate 4 (row r9)): 8.853 | ∆log(tau/Ka) (human SSTR2 [2]; GoB (GαoB)): -1.118 | LogR, Mean (human SSTR2 [2]; GoB, N: SS-14 2, Octreotide 2, pG1 3): 8.505 | LogR (human SSTR2 [2]; GoB, replicate 1 (row r6)): 8.36 | LogR (human SSTR2 [2]; GoB, replicate 2 (row r7)): 8.764 | LogR (human SSTR2 [2]; GoB, replicate 3 (row r8)): 8.39 | LogR ± S.E.M. (human SSTR2 [2]; Gαi1): 7.42 ± 0.20 | RE (human SSTR2 [2]; Gαi1, 10^∆log(τ/KA)): 0.01 | ∆LogR ± S.E.M. (human SSTR2 [2]; Gαi1): -1.98 ± 0.27 | LogR ± S.E.M. (human SSTR2 [2]; Gαi2): 7.87 ± 0.12 | RE (human SSTR2 [2]; Gαi2): 0.033 | ∆LogR ± S.E.M. (human SSTR2 [2]; Gαi2): -1.48 ± 0.31 | LogR ± S.E.M. (human SSTR2 [2]; Gαi3): 8.30 ± 0.24 | RE (human SSTR2 [2]; Gαi3): 0.039 | ∆LogR ± S.E.M. (human SSTR2 [2]; Gαi3): -1.41 ± 0.26 | LogR ± S.E.M. (human SSTR2 [2]; GαoA): 8.75 ± 0.10 | RE (human SSTR2 [2]; GαoA): 0.082 | ∆LogR ± S.E.M. (human SSTR2 [2]; GαoA): -1.08 ± 0.13 | LogR ± S.E.M. (human SSTR2 [2]; GαoB): 8.50 ± 0.13 | RE (human SSTR2 [2]; GαoB): 0.076 | ∆LogR ± S.E.M. (human SSTR2 [2]; GαoB): -1.12 ± 0.14 | G protein bias in words (human SSTR2 [2]): does not bias towards Gi1 protein but preferentially couples to GoA and GoB protein | G protein bias in words (human SSTR2 [2]; listed as Consomatin pG1): displays G protein bias towards Go subunits | GoA dissociation at Dr-sstr2a in words (Dr-sstr2a (GoA)): only induced GoA dissociation at the Dr-sstr2b but not the Dr-sstr2a | activation of Dr-sstr2a in words (Dr-sstr2a): very low potency; also recorded: activates the zebrafish Dr-sstr2b (n = 3) but not Dr-sstr2a
